Results taken from patent publication US11446352B2, “Compositions and methods for inhibiting tumor-induced immune suppression” (priority 2017, dated 2022).

Tests used:
[1] = system: Hsp90 chaperoning machine; assay: progesterone receptor (PR) refolding assay using reticulocyte lysate (RRL); type: biochemical; conditions: 10 μM EnnA
Text: (§1) The first bar indicates 100% folding activity of RRL without inhibitor. PR22 indicates the antibody without PR but with RRL and EnnA. PR represents the antibody (PR22) with PR but without RRL. All other samples have PR22, PR, and RRL without (first bar) or with increased concentration of EnnA. FIGS. 1C-1E are line graphs of cell survival versus EnnA concentration (μM) in breast cancer cell lines Hs578T (FIG. 1C), […] (FIG. 1D) and MDA-MB231 (FIG. 1E) upon treatment with EnnA for 48 and 72 h. […] PR alone (PR), antibody (PR22)+RRL, PR+RRL without inhibitor (RRL), PR+RRL with 1 μM 17-AAG (17AAG) PR+RRL with 10 μM BEAU or EnnA. FIGS. 1G-1I are autoradiographs of Western blots of cytosols from various cell lines treated with 17-AAG (1 μM) or EnnA (3 μM) with antibodies against the specified proteins. FIG. 1J is an autoradiograph showing EnnA causes autophagy in Hs578T and MDA-MB453 cell lines. FIGS. 1K-1N are electron microscopy micrographs showing autophagosomes and reduced mitochondria content in Hs578T cells treated with DMSO or EnnA. FIGS. 1O-1P are fluorescence micrographs showing EnnA causing reduced mitochondria content in Hs578T cells. FIGS. 1Q-1BB are fluorescence micrographs showing mitophagy in Hsp578T cells treated with EnnA as indicated by colocalization of the mitochondria marker Cox4 and the autophagy marker LC3BII.
A cell-free high-throughput screen (HTS) platform based on the progesterone receptor (PR) using reticulocyte lysate (RRL) as a source of molecular chaperones was used to screen 175 natural products (Patwardhan C A, et al., J Biomol Screen (2014)). This assay captures the physiological steps of PR refolding by the Hsp90 chaperoning machine and measures the recovery of its hormone-binding activities after mild heat treatment. It has the ability to identify inhibitors as well as activators of the core components of the Hsp90 chaperoning machine (i.e., Hsp90, Hsp70, Hsp40, Hsp90/Hsp70 organizing protein (HOP), and p23), including compounds that target chaperone complexes as well as individual proteins.

[2] = system: Hs587T and MDA-MB-453 cell lines; assay: autophagy, mitochondria content and mitophagy in treated cancer cells; type: cell-based, human
Text: as §1

IDO-GFP fusion protein = type: cell-based; conditions: HEK 293 cells
Experimental: FIG. 3A-3B are autoradiographs of a Western blot showing expression of the indicated proteins in control (left lane) and 0.5 μM EnnA-treated (right lane) E0771 (FIG. 3A) and AT3 (FIG. 3B) cells. FIG. 3C is a graph showing FACS analysis of PD-L1 level in AT3 cells. FIGS. 3D-3K are graphs showing qPCR analysis of the mRNA level of cytokines TNFa (FIG. 3D), IL-6 (FIG. 3E), TGFb1 (FIG. 3F) and IL-10 (FIG. 3G), the chemokines S100a9 (FIG. 3J) and CCL3 (FIG. 3K), as well as PDL1 (FIG. 3H) and IDO (FIG. 3I). FIGS. 3L-3Q are micrographs of HEK293 cells transiently transfected with GFP-IDO fusion protein expressing or GFP alone plasmids for 24 h. Cells were then treated with 5 μM EnnA for 6 h and analyzed for green fluorescence and bright light. FIG. 3R is a line graph of μg/ml of tryptophan and its IDO-mediated product kynurenine using the previously reported HPLC-based assay.
Western blot analysis (FIG. 3A-3B) confirmed that EnnA destabilizes pAKT and reduces the protein expression of Hsp40 in E0771 and AT3. […] It also reduces the mRNA level of the chemokines S100a9 and CCL3 (FIG. 3J-3K). Importantly, EnnA reduces the mRNA and protein levels of the key immunological checkpoint component PDL-1 (FIG. 3H). Similar results were obtained with EMT6 (not shown). […]

E0771 tumors [3] = assay: E0771 syngeneic tumor model in C57BL/6 immunocompetent mice; type: in vivo; conditions: for anti-tumor activity (tumor volume): C57BL/6, 10 mg/kg every other day
Experimental: 50,000 E0771 cells were surgically implanted in mammary fad pad of 10 C57BL/6 immunocompetent mice and 10 immunocompromised nude mice. 12 days after surgery, B6 and nude mice were divided into two groups each. the EnnA group was injected with 10 mg/kg of EnnA every other day, and the control group received a mixture of 15% DMSO and 20% cremophor in PBS.
100,000 E0771 cells were surgically implanted in mammary fat pad of 20 mice. Ten days after surgery, mice were divided into two groups: the EnnA group was injected with 10 mg/kg of EnnA every other day, and the control group received a mixture of 15% DMSO and 20% cremophor in PBS.

E0771 tumors [4] = assay: re-challenge of cured mice with E0771 cells (immune memory); type: in vivo; conditions: EnnA/CPA-treated group re-challenged with 50,000 E0771 cells; tumors completely eliminated 10 days later
Text: FIG. 6A is a line graph of tumor volume (mm^3) versus days post implantation. FIG. 6B-6E are images of three representative mice from each indicated group at the end of the treatment. FIGS. 6F-6I are a panel of images of mice from the CPA+EnnA group monitored for tumor recurrence for two more months (3 months post implantation). No tumor recurrence was observed. They were re-challenged with 50,000 E0771 cells implanted in the opposite fat pad. Five Naïve mice were used as controls. Upper panels and lower show luciferase luminescence images of mice bearing tumors at 7 and 17 days after the second implantation, respectively.
The anti-tumor activity of EnnA involves both cytotoxicity and clearance by T cells. […] Indeed, EnnA/CPA-treated mice remained tumor-free for 2 months after the end of EnnA treatment. To test whether the cured mice developed immune memory, […] 50,000 E0771 tumor cells.

CC[C@H](C)[C@H]1C(=O)O[C@H](C(C)C)C(=O)N(C)[C@@H]([C@@H](C)CC)C(=O)O[C@H](C(C)C)C(=O)N(C)[C@@H]([C@@H](C)CC)C(=O)O[C@H](C(C)C)C(=O)N1C [EnnA, Enniatin A]
level of Hsp90 in PR complexes ([1]; protein complex analysis after PR reconstitution): reduces
accumulation of Hsp70-rich PR complexes ([1]; protein complex analysis, 1 μM 17-AAG): does not induce
mitochondria content in cancer cells ([2]; Hs578T cells): reduces
mitophagy ([2]; Hs578T cells, Cox4 / LC3BII colocalization): induction of mitophagy
mode of cell death (apoptosis / autophagy) ([2]; Hs587T and MDA-MB-453 cell lines): induces autophagy
IDO-GFP green fluorescence (IDO-GFP fusion protein; 5 μM EnnA, 6 h): dramatic loss
cell death (IDO-GFP fusion protein; early time point (6 h)): No significant cell death
effect on bodyweight or activities of mice (E0771 tumors [3]; 10 mg/kg every other day): No significant effect
anti-tumor activity (tumor volume) (E0771 tumors [3]; Example 3: 50,000 E0771 cells): powerful anti-tumor activity
anti-tumor activity (tumor volume) (E0771 tumors [3]; Example 4: 100,000 E0771 cells): powerful anti-tumor activity
mice showing small tumors seven days after the second implantation (E0771 tumors [4]): two of the seven
